This note sets out measurements from PMC3996155, “The crystal structure of fibroblast growth factor 18 (FGF18)” (Protein & Cell, 2014).

pKd: −log10 of the molar value.

In the assay the target is T1, FGF18 (Homo sapiens, UniProt O76093).
T1 construct: residues 50-194 of the 207-residue precursor (signal peptide 1-27 absent), expressed in Escherichia coli, purified
T1 sequence (O76093 50-194): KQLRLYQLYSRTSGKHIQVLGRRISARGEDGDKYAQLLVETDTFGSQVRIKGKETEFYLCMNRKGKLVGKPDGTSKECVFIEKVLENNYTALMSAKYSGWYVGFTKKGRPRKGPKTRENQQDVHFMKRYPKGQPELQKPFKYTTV
As to the kind of experiment: isothermal titration calorimetry. It is filed as binding. The note with it: size-defined heparin oligosaccharide, sulfation pattern not stated; error exceeds the value; read-out: affinity. (In general: Isothermal titration calorimetry measures the heat released or taken up as one component is titrated into another.)

As to heparin oligosaccharides of 6 dp, the pKd is 5.66.
